Test results reported in patent US20220306626A1, “CRYSTALLINE FORM OF A DIHYDROCHLORIDE SALT OF A JAK INHIBITOR COMPOUND” (Theravance Biopharma R&D IP, LLC, priority 2021, published 2022).
Like-named read-outs stand apart in the source and are kept apart here.

How the values were obtained:
[1] = in vivo; cited from earlier work
[2] = biological target: JAK2 (Homo sapiens, UniProt O60674); settings: cited from earlier work
[3] = biological target: TYK2 (Homo sapiens, UniProt P29597); settings: cited from earlier work
[4] = biological target: JAK1 (Homo sapiens, UniProt P23458); settings: cited from earlier work
[5] = biological target: T1, JAK3 (Homo sapiens, UniProt P52333); settings: cited from earlier work
T1 sequence (P52333 1-1124): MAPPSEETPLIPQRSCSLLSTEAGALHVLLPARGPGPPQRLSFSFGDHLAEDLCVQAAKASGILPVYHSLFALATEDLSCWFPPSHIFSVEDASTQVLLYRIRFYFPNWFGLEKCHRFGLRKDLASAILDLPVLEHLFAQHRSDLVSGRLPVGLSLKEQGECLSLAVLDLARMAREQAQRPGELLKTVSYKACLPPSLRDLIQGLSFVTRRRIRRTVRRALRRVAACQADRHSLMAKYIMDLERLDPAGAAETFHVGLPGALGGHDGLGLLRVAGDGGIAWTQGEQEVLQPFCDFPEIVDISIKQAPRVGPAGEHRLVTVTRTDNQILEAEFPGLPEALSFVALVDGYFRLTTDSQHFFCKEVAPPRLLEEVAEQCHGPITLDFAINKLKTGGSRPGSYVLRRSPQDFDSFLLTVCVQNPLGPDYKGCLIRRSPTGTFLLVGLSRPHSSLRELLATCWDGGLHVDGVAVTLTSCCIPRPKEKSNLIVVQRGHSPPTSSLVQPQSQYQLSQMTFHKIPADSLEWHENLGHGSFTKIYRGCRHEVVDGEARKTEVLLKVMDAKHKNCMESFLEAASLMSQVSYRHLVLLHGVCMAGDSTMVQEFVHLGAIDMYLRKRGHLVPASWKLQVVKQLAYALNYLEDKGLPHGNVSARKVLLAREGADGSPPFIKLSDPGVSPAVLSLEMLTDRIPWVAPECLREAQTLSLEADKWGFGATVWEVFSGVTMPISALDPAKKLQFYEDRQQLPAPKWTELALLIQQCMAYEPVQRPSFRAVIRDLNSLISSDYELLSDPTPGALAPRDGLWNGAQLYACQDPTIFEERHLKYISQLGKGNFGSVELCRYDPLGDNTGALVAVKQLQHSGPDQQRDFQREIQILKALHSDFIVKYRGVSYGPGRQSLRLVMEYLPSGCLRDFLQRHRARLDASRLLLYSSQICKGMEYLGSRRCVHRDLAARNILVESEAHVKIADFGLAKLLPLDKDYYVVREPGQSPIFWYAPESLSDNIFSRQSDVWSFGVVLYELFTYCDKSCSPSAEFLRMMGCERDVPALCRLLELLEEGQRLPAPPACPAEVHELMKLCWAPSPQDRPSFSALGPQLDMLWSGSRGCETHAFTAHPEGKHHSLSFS

[6] = test system: pro-inflammatory and pro-fibrotic cytokines; settings: cited from earlier work
[7] = Stability study, storage at 40° C. and 75% relative humidity, analysed by HPLC; format: physicochemical
Experimental: Samples of the crystalline form were stored in glass vials with screw caps at 40° C. and 75% relative humidity (RH). At specific intervals, the contents of a representative sample were removed and analyzed by HPLC for assay and chemical purity as shown in Table 3.

[8] = Solubility of the crystalline form in water and Simulated Lung Fluid; format: physicochemical
Experimental: The solubility of the crystalline form was assessed in water and Simulated Lung Fluid (SLF). The crystalline form was dispersed in liquid media in multiple vials to form slurries, with each vial containing about 7.5 mg of the crystalline form and 0.5 mL of the liquid media. The slurries were agitated in a thermo-shaker at 25° C. and samples were collected from different vials at approximately 5, 15, 30, 60 minutes, and 24 hours. At each of the timepoints, the slurries were centrifuged for 10 minutes. The supernatant was collected and centrifuged for another 10 minutes. Solubility at each timepoint is determined by analyzing the compound concentration in the supernatant using HPLC. SLF composition: 0.4% NaCl, 0.02% DPPC in 50 mM phosphate buffer pH 6.9

[9] = Thermogravimetric analysis (TGA); format: physicochemical; settings: heating rate of 10° C., ambient to 360° C., nitrogen
Experimental: Thermogravimetric analysis (TGA) measurements were performed using a TA Instruments Model Q-50 module equipped with high resolution capability. Data were collected using TA Instruments Thermal Analyst controller and analyzed using TA Instruments Universal Analysis software. A weighed sample was placed onto a platinum pan and scanned with a heating rate of 10° C. from ambient temperature to 360° C. The balance and furnace chambers were purged with nitrogen flow during use. The crystalline form decomposes at an onset temperature of about 285° C.

[10] = Dynamic moisture sorption (DMS) assessment; format: physicochemical
Experimental: Dynamic moisture sorption (DMS) measurement was performed using a VTI atmospheric microbalance, SGA-100 system (VTI Corp., Hialeah, Fla. 33016). A weighed sample was used and the humidity was at the lowest possible value (close to 0% RH) at the start of the analysis. The DMS analysis consisted of an initial drying step (˜0% RH) for 16 hours, followed by two cycles of sorption and desorption with a scan rate of 5% RH/step over the humidity range of 5% RH to 90% RH. The DMS run was performed isothermally at 25° C.

[11] = T = 3 Months, 40° C. and 75% RH
[12] = T = 6 Months, 40° C. and 75% RH

Sequence of JAK2 (O60674 whole entry): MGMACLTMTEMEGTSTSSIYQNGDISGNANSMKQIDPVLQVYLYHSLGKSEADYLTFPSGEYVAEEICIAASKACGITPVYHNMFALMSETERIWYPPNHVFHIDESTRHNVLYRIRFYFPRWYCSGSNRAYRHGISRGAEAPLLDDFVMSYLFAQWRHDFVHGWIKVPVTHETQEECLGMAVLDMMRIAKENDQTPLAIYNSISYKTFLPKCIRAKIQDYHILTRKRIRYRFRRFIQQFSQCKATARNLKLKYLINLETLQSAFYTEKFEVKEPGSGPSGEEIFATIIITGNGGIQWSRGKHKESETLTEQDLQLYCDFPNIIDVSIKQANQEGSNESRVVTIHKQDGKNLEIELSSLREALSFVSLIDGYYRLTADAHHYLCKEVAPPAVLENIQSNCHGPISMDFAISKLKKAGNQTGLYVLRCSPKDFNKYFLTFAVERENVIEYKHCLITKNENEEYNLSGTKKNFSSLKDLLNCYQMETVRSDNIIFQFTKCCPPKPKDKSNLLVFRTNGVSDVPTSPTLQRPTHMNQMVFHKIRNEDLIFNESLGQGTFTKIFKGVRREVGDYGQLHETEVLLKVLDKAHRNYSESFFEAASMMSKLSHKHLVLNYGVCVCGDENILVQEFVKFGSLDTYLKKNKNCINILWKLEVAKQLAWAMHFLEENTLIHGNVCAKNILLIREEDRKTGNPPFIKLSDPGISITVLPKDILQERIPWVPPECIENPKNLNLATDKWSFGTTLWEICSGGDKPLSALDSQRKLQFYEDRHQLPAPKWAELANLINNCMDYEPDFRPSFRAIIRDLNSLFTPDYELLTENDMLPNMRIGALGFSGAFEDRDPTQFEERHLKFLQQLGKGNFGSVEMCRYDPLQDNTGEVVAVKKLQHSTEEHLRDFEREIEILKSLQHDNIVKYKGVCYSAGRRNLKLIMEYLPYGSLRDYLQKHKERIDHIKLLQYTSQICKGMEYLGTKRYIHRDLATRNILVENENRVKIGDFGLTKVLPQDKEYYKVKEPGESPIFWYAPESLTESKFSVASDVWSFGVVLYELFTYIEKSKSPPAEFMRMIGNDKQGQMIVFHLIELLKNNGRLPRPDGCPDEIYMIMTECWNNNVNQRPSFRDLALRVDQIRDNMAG
Sequence of TYK2 (P29597 whole entry): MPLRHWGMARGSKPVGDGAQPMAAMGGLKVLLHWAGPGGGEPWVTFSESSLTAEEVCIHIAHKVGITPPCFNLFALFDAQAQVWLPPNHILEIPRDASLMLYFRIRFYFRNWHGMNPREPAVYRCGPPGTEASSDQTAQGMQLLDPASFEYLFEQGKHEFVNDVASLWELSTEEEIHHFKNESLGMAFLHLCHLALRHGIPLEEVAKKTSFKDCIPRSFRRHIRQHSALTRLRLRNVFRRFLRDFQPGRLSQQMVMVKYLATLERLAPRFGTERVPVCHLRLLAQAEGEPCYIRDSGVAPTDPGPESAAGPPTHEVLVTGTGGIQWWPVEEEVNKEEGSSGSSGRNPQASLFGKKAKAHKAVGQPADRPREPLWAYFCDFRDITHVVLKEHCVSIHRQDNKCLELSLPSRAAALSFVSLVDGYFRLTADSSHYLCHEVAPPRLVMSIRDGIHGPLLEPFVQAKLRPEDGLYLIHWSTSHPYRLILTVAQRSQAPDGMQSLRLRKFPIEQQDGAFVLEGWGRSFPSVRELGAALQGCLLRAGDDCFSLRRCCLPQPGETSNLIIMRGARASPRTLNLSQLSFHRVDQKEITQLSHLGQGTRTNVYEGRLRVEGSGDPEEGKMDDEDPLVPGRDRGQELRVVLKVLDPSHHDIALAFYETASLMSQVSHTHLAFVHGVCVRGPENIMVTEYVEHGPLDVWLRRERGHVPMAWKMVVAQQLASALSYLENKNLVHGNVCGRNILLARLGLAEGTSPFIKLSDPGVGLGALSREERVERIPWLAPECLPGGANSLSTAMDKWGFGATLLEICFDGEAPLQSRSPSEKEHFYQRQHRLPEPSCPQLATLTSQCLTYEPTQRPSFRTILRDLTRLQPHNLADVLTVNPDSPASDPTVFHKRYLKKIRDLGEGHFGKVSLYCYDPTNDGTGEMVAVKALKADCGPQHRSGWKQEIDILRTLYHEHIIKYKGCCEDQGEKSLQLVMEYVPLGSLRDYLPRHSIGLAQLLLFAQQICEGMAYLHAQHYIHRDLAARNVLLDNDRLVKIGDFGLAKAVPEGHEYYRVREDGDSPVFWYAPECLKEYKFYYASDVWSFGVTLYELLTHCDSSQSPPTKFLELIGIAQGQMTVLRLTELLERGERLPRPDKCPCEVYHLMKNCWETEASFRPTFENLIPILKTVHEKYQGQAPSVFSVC
Sequence of JAK1 (P23458 whole entry): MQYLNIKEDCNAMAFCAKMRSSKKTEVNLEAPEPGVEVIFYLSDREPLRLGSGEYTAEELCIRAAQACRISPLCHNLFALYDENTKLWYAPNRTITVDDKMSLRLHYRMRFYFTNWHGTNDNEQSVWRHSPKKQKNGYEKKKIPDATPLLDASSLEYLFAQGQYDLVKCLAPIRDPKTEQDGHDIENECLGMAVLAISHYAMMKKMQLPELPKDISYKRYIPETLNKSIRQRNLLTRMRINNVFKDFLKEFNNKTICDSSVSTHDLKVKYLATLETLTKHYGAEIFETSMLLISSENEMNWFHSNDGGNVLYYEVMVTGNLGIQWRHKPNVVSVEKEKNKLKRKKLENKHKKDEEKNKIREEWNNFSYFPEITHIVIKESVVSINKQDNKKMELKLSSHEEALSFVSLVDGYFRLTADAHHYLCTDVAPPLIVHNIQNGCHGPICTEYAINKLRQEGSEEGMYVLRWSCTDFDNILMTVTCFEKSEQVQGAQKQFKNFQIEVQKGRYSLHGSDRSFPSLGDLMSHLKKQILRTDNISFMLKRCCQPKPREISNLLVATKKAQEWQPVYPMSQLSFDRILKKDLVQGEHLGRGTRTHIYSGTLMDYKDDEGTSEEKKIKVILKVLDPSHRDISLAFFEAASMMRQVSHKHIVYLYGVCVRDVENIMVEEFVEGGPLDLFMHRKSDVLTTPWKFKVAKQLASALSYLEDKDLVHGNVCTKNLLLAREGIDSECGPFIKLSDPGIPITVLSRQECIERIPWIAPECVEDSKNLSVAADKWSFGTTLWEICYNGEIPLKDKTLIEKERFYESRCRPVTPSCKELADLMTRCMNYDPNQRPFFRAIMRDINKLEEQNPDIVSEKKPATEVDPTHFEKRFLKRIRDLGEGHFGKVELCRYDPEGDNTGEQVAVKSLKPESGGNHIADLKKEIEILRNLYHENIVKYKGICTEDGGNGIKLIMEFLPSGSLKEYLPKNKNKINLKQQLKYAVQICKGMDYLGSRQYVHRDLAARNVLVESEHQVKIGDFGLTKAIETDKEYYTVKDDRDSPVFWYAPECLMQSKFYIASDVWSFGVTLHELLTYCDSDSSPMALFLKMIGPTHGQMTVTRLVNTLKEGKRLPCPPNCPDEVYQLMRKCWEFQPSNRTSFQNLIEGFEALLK

CCc1cc(O)c(F)cc1-c1ccc2c(-c3nc4c([nH]3)CCN(C3CCN(C)CC3)C4)n[nH]c2c1 [compound 1, 5-ethyl-2-fluoro-4-(3-(5-(1-methylpiperidin-4-yl)-4,5,6,7-tetrahydro-1H-imidazo[4,5-c]pyridin-2-yl)-1H-indazol-6-yl)phenol]
lung retention (in words) [1]: significant lung retention
inhibition of JAK2 (in words) [2]: potent inhibitor
inhibition of TYK2 (in words) [3]: potent inhibitor
inhibition of JAK1 (in words) [4]: potent inhibitor
inhibition of JAK3 (in words) [5]: potent inhibitor
inhibition of pro-inflammatory and pro-fibrotic cytokines (in words) [6]: potent inhibition

CCc1cc(O)c(F)cc1-c1ccc2c(-c3nc4c([nH]3)CCN(C3CCN(C)CC3)C4)n[nH]c2c1 [crystalline form, 5-ethyl-2-fluoro-4-(3-(5-(1-methylpiperidin-4-yl)-4,5,6,7-tetrahydro-1H-imidazo[4,5-c]pyridin-2-yl)-1H-indazol-6-yl)phenol, 2HCl Crystalline Form]
Assay % w/w ([7]; T = 0): 85.0 % w/w
HPLC purity % a/a ([7]; T = 0): 98.7 % a/a
Assay % w/w ([7]; T = 1 Week, 40° C. and 75% RH): 86.8 % w/w
HPLC purity % a/a ([7]; T = 1 Week, 40° C. and 75% RH): 98.7 % a/a
Assay % w/w ([7]; T = 2 Weeks, 40° C. and 75% RH): 85.1 % w/w
HPLC purity % a/a ([7]; T = 2 Weeks, 40° C. and 75% RH): 98.7 % a/a
Assay % w/w [7, 11]: 84.5 % w/w
HPLC purity % a/a [7, 11]: 98.7 % a/a
Assay % w/w ([7]; T = 4 Weeks, 40° C. and 75% RH): 86.9 % w/w
HPLC purity % a/a ([7]; T = 4 Weeks, 40° C. and 75% RH): 98.7 % a/a
Assay % w/w [7, 12]: 85.1 % w/w
HPLC purity % a/a [7, 12]: 98.5 % a/a
change in purity or assay ([7]; after 6 months at 40° C. and 75% RH): no significant change
solubility at 30 min ([8]; Simulated Lung Fluid (SLF), fassgf or other biorelevant, thermodynamic from solid, Simulated Lung Fluid pH 6.9, 25° C., 30 minutes): 210 µg/mL
solubility at 24 h ([8]; Simulated Lung Fluid (SLF), pH 6.9, fassgf or other biorelevant, thermodynamic from solid, Simulated Lung Fluid, 25° C., read-out: solubility in SLF): 70 µg/mL
solubility in simulated lung fluid (in words) ([8]; simulated lung fluid): good solubility
solubility at 60 min ([8]; thermodynamic from solid, water, 25° C., 60 minutes): 8900 µg/mL
solubility at 24 h ([8]; thermodynamic from solid, water, 25° C., read-out: solubility in water): 3200 µg/mL
solubility in water (in words) ([8]; water): good solubility
decomposition onset temperature (TGA) [9]: about 285 °C
change in form after two cycles of moisture sorption and desorption ([10]; 5% RH to 90% RH, 25° C.): no change in form
total moisture uptake ([10]; relative humidity between about 5% and about 90%, room temperature (25° C.)): about 0.8%
